Assay results: patent publication EP2535710A1, “Method for determining the immune toxicity of a compound in vitro” (Rijksinstituut Voor Volksgezondheid En Milieu, priority 2011, dated 2012)

Tests used:
[1] = tested on: MAPK1; assay: Phosphoproteome analysis of TBTO-treated cells (phosphoprotein and TiO2 phosphopeptide enrichment, nano-LC/MS/MS); type: cell-based, Murine; details: whole protein; abundantly present in control cells; EL4 cells, 0.5 µM TBTO, 6 hr
Procedure: (§1) Murine EL4 cells were cultured as described before.
(§2) After exposure, cell suspensions were centrifuged at 1200 rpm for 10 min at 4 °C and the pellets were washed in 20 mL phosphate-buffered saline (PBS, pH 7.2) and centrifuged again. This procedure was repeated twice. The obtained cell pellet of each sample or control was then suspended in 5 mL of phosphoprotein lysis buffer prepared following the instructions of Phosphoprotein Purification Kit (Qiagen). This volume of the lysis buffer contained, in addition to the detergent CHAPS and Benzonase (10 µL), one tablet of protease inhibitor and Phosphatase Inhibitor Cocktail 1 (10 µL). The cell suspension was incubated on ice for 30 min and vortexed briefly and gently every 10 min. After that, the cell lysate was centrifuged at 10.000 rpm for 30 min at 4 °C. The supernatant was then taken and protein concentration determined according to Bradford. A total amount of 2.5 mg protein, at the concentration of 0.1 mg/mL, was loaded on the affinity column, which was pre-equilibrated with lysis buffer as recommended by the manufacturer. The chromatography was performed at room temperature. […] These enriched fractions were combined and the protein concentration was determined. […]

[2] = tested on: Matrin 3; assay: Western blot analysis of TBTO-treated and control cell extracts; type: cell-based, Murine; details: Immunoblot, TBTO-treated cells versus control extract; EL4 cells, 0.5 µM TBTO, 6 hr; Fig. 1 b
Procedure: as §1, §2

[3] = tested on: RPS6KB1 (Thr444/Ser447); assay: as above; type: cell-based, Murine; details: treated cells compared to control extract, EL4 cells, 0.5 µM TBTO, 6 hr, Figure 1a
Procedure: as §1, §2

[4] = tested on: Murine EL4 cells; details: trypan blue dye exclusion, 0.5 µM TBTO, 37 °C for 6 hr, range in all experiments
Procedure: Murine EL4 cells were cultured as described before [10]. Each treated sample or control contained 5×10^7 cells in a volume of 20 mL. A 1 mM TBTO stock solution was prepared in ethanol and 10 µl of this solution was added to each one of the cell suspension samples so that the final concentration of TBTO was 0.5 µM, whereas 10 µl of ethanol without TBTO was added to the control cells. Two independent replicate experiments for both treated sample and control were performed. Subsequently, cells were incubated at 37 °C for 6 hr.

[5] = tested on: cells; details: TBTO concentrations higher than 1µM and incubation times longer than 6h; refs [10, 21]; cited from earlier work

CCC[CH2][Sn]([CH2]CCC)([CH2]CCC)[O][Sn]([CH2]CCC)([CH2]CCC)[CH2]CCC [TBTO, tributyltin oxide]
detection of MAPK1 phosphoprotein in TBTO-treated cells [1]: not detected | band corresponding to Matrin 3 (ca. 125-130 kDa) [2]: not detectable | intensity signal of the band corresponding to Thr444/Ser447 [3]: decrease in the intensity signal | Cell viability [4]: 85-90% | apoptosis of cells [5]: caused apoptosis of cells
